We go through three molecules from patent US20050222043A1, “Use of proteasome inhibitor in the treatment of fibrotic diseases” (priority 2002, published 2005).

“Also recorded” adds a separate entry of the source. Peptide text beside a SMILES is read from it. * marks the point of attachment. Cbz = O=C(OCc1ccccc1)*

For series [1], the system named is spontaneously hypertensive rats (SH-rats). As to the kind of experiment: Histological determination of cardiac fibrosis (quantitative morphometry of siriusred-stained left-ventricular sections) in SH-rats. Format: in vivo, rat. The settings on record: MG132-treated, FIG. 1B. The procedure: For the pathohistological evaluation, the rat hearts were embedded into paraffin, cut into sections having a thickness of 3 μm, subjected to a haematoxylin-eosin and siriusred staining and analysed as being described in Hocher, B. et al., (1999), Hypertension, 3, 816-822. The degree of heart fibrosis was evaluated by means of quantitative morphometry of the siriusred-stained sections with an image analysis system (Quantimed 500, Image 1.61 program). In this analysis, the ratio of the red-stained tissue (connective tissue) and the total tissue of the section was determined.
Male SH-rats of the same age were obtained from the Jackson Laboratory, Maine, USA. […] The blood pressure was measured weekly by means of the standard tail-cuff method. The blood values and the standard laboratory markers of the renal and hepatic functions were determined 6 weeks after the treatment and at the end of the study by means of standard methods. At the end of the study, the animals were anaesthetised by means of an intraperitoneal injection of a 20% urethane solution (0,9 g per kg body weight) and the left-ventricular pressure parameters were determined as being described by Saragoca, M. et al. (1981) Hypertension, 3, 380-385. […]
The data was determined in the form of mean values ±S.E.M., if not otherwise indicated. […]

Series [2] has the same test system. The series can be described thus: Left-ventricular pressure parameters in SH-rats. The class given is in vivo, rat. The note with it: 1 mg/kg daily i.p., 12 weeks. On the procedure:
(§1) Male SH-rats of the same age were obtained from the Jackson Laboratory, Maine, USA. The animals were maintained according to the international guidelines for the keeping und use of laboratory animals. 6-week-old rats were treated for 12 weeks with MG132 (1 mg per kg body weight), 0,1% DMSO as solvent control or with physiological saline (n=10 per group, daily intraperitoneal injection). The animals were fed with a high salt diet (drinking water with 2% sodium chloride). The blood pressure was measured weekly by means of the standard tail-cuff method. The blood values and the standard laboratory markers of the renal and hepatic functions were determined 6 weeks after the treatment and at the end of the study by means of standard methods. At the end of the study, the animals were anaesthetised by means of an intraperitoneal injection of a 20% urethane solution (0,9 g per kg body weight) and the left-ventricular pressure parameters were determined as being described by Saragoca, M. et al. (1981) Hypertension, 3, 380-385. The organs were withdrawn, weighed and either shock-frozen in liquid nitrogen or embedded in paraffin for the histological analysis. Since no difference was observed between the DMSO-treated and the salt-treated SH-rats in respect to the above mentioned parameters, the DMSO-treated animals served as a control for the MG132-treatment.
The data was determined in the form of mean values ±S.E.M., if not otherwise indicated. The significance of the differences in the left-ventricular pressure parameters and in the quantification of the heart fibrosis was determined according to Student's T-test. For the cell proliferation test, the significance was determined by comparing the regression coefficients of MG132 in relation to the control group. An error probability of p<0,05 was considered as being significant. The software SPSS 9.0 was used for all statistical calculations.

Series [3] has the same test system. The series can be described thus: Animal study: tolerability, blood pressure, weights, blood values in SH-rats. The class given is in vivo, rat. On the procedure:
as §1

For a further series, the system named is cardiac fibroblasts. As to the kind of experiment: Proliferation test (trypanblue exclusion cell counting). Format: cell-based, rat. The note with it: 0,1 and 1 μM, 10% serum, counted daily for 7 days. On the procedure: Cardiac fibroblasts were prepared from neonatal Wistar rats by plating the non-myocyte fraction of neonatal hearts. The hearts were removed from neonatal rats being 2-3 days old. Ventricular tissue was treated over night at 4° C. with […] trypsin in Hanks-Balanced Salt Saline (HBSS) (Ca^2+- and Mg^2+-free, Invitrogen™, Karlsruhe, Germany) and with collagenase (0,5 mg per ml) in Leibowitz medium (L-15, Invitrogen™, Karlsruhe, Germany) for 45 minutes at 37° C. After washing, the cells were pre-plated at 37° C. for one hour. […]
MG132, ALLM and MG262 were purchased at Calbiochem® (San Diego, Calif., USA) and provided as 10 mM DMSO stock solutions. […] The proliferation was determined by counting the living cells in triplicate in daily intervals by means of the trypanblue exclusion test. […]
The data was determined in the form of mean values ±S.E.M., if not otherwise indicated. The significance of the differences in the left-ventricular pressure parameters and in the quantification of the heart fibrosis was determined according to Student's T-test. For the cell proliferation test, the significance was determined by comparing the regression coefficients of MG132 in relation to the control group. […]

The next series concerns collagen Iα1. As to the kind of experiment: Real-time PCR of collagen Iα1 mRNA in cardiac fibroblasts. The settings on record: primary cardiac fibroblasts. Format: cell-based, rat. On the procedure: (§2) Cardiac fibroblasts were prepared from neonatal Wistar rats by plating the non-myocyte fraction of neonatal hearts. The hearts were removed from neonatal rats being 2-3 days old. Ventricular tissue was treated over night at 4° C. with […] trypsin in Hanks-Balanced Salt Saline (HBSS) (Ca^2+- and Mg^2+-free, Invitrogen™, Karlsruhe, Germany) and with collagenase (0,5 mg per ml) in Leibowitz medium (L-15, Invitrogen™, Karlsruhe, Germany) for 45 minutes at 37° C. After washing, the cells were pre-plated at 37° C. for one hour. The adherent cells predominantly were cardiac fibroblasts, which were then further cultivated under standard conditions in standard M199-medium with 10% new-born calf serum, L-glutamine and penicillin-streptomycin (Invitrogen™, Karlsruhe, Germany). In the experiments, we used sub-cultivated fibroblasts of the passages 3-7.
(§3) Total RNA was extracted by means of Trizol reagent (Invitrogen™, Karlsruhe, Germany). In the following, the RNA was subjected to reverse transcription (AMF Reverse Transkriptase, Roche Biochemicals, Mannheim, Germany) and treated with DNase (Ambion, Huntington, UK). […] The relative quantification was performed by means to the comparative CT-method as being described by the manufacturer.
Background: Real-time PCR tracks product formation cycle by cycle.

A further series relates to collagen Iα2. The series can be described thus: Real-time PCR of collagen Iα2 mRNA in cardiac fibroblasts. Format: cell-based, rat. The settings on record: primary cardiac fibroblasts. On the procedure:
as §2, §3

A further series relates to collagen IIIα1. As to the kind of experiment: Real-time PCR of collagen IIIα1 mRNA in cardiac fibroblasts. The class given is cell-based, rat. The note with it: primary cardiac fibroblasts. The procedure: as §2, §3
The subject of another series is MMP2 and MMP9. As to the kind of experiment: Real-time PCR of MMP expression in cardiac fibroblasts. Format: cell-based, rat. The settings on record: FIG. 4A. The procedure:
as §2
(§4) Total RNA was extracted by means of Trizol reagent (Invitrogen™, Karlsruhe, Germany). In the following, the RNA was subjected to reverse transcription (AMF Reverse Transkriptase, Roche Biochemicals, Mannheim, Germany) and treated with DNase (Ambion, Huntington, UK). […] The relative quantification was performed by means to the comparative CT-method as being described by the manufacturer. […]

For a further series, the system named is NFκB. The series can be described thus: Band shift analysis for active NFκB in nuclear extracts of cardiac fibroblasts. Format: cell-based, rat. The settings on record: 0,5 μM with IL-1β; not less than 6 hours. On the procedure:
This was additionally confirmed in band shift analyses with oligonucleotides comprising a NFκB-DNA binding site. For this test, nuclear extracts from cardiac fibroblasts were prepared, which were treated with 0,5 μM MG132 or, respectively, with DMSO (solvent control) in a time course in the presence or absence of IL-1β.

The test system of series [4] is collagens Iα1, Iα2 and IIIα1. As to the kind of experiment: Real-time PCR of collagen expression (stated jointly) in cardiac fibroblasts. Format: cell-based, rat. The note with it: primary cardiac fibroblasts, FIG. 2B. On the procedure: as §2, §4

Consider `CC(C)C[C@@H](C=O)NC(=O)[C@H](CC(C)C)NC(=O)[C@H](CC(C)C)NC(=O)OCc1ccccc1` [MG132, Z-Leu-Leu-Leu-al] (Cbz-Leu-Leu-Leu-aldehyde), for which, in series [1], the “cardiac fibrosis in heart section (in words)” value was “significantly reduced cardiac fibrosis”. In [2] (1 mg/kg), the “LVEDP compared with control (in words)” value is given as “remarkably reduced pressure level; also recorded: significantly lower” and the “dp/dtmax compared with control (in words)” value is listed as “significantly higher; also recorded: more than twice higher”. In series [2] (mean ± S.E.M.), the “left-ventricular end-diastolic (filling) pressure LVEDP” value worked out at 5±3 mm Hg and the “maximal pressure drop rate dp/dtmin” value was −5046±726 mm Hg/s. The “tolerability of long-term treatment” value in series [3] (SH-rats, 1 mg per kg daily, 12 weeks) is “very well tolerated; also recorded: in general well tolerated”. Besides, the “Body Weight” value in series [3] (SH-rats, 1 mg/kg MG132) was 280 ± 15.3 g. In addition, in series [3] (blood samples after 6 weeks and at end of study), the “differential blood picture and laboratory markers of kidney or liver side effects” value was “neither changes in the differential blood picture nor a change in the laboratory markers”. The “inhibition of proliferation / growth of cardiac fibroblasts” value in the series with cardiac fibroblasts is reported as “dose-dependent inhibition of proliferation”. Further, the “expression of collagen Iα1” value in the series on collagen Iα1 is “unaffected”. Further, the “expression of collagen Iα2 (in words)” value in the series on collagen Iα2 (FIG. 2B) was “dose-dependent and dramatic reduction”. Also, the “down-regulation / inhibition of collagen Iα2 RNA expression” value in the series with collagen Iα2 (dose-dependent) is “up to 73%”. Besides, the “expression of collagen IIIα1 (in words)” value in the series with collagen IIIα1 (FIG. 2B) is “dose-dependent and dramatic reduction”. For the same molecule, the “down-regulation / inhibition of collagen IIIα1 RNA expression” value in the series with collagen IIIα1 (dose-dependent) is on record as “up to 91%”. Also, the “expression of MMP2 and MMP9 under co-stimulation with IL-1β” value with MMP2 and MMP9 is “surprisingly strong reduction”. In addition, the “effect on IL-1β-induced NFκB activation (band shift)” value in the series with NFκB is “small inhibitory effect”.

With `CSCC[C@@H](C=O)NC(=O)[C@H](CC(C)C)NC(=O)[C@H](CC(C)C)NC(C)=O` [ALLM] (Ac-Leu-Leu-Met-aldehyde), in series [4], the “effect on collagen expression” value was “no effects”.

As for `CC(C)C[C@H](NC(=O)[C@H](CC(C)C)NC(=O)[C@H](CC(C)C)NC(=O)OCc1ccccc1)B(O)O` [MG262], the “effect on collagen expression” value in series [4] is reported as “inhibited the collagen expression in a comparably effective manner”.
